Test system: c-fos
Assay: c-fos activation (Fos-like immunoreactivity) in rat brain after atomoxetine
Type: in vivo
Settings: rats, 3 mg/kg i.p., two hours after administration
Protocol: The immediate-early gene, c-fos, and its protein products have been increasingly utilized as markers for neuronal activation (Dragunow and Faull, J. Neurosci. Methods, 29, 261-265 (1989); Morgan and Curran, Prog. In Brain Res., 86, 287-294 (1990); Robertson, et al., J. Pharmacol. Exp. Ther., 271, 1058-1066 (1994)). C-fos activation is measured as illustrated below for atomoxetine.
Two hours after administration of atomoxetine (3 mg/kg, i.p.), the rats were deeply anesthetized with sodium pentobarbital (60 mg/kg, i.p.) and transcardially perfused with 100 ml of phosphate buffered saline (PBS) followed by 100 ml of 4% paraformaldehyde in PBS. The brain was rapidly removed, postfixed for 90 min in 4% paraformaldehyde and then was transferred to 30% sucrose at […] until saturated. After quick freezing, serial 30 μm sections were cut and placed in PBS until processed for immunohistochemistry. In brief, sections were incubated in PBS containing blocking serum and 0.5% Triton-X 100 for 1 hour. Sections were then incubated with anti-Fos antibody (Santa Cruz Biotechnology, Inc.) at 4° C. overnight. Visualization of the Fos-like immunoreactivity was performed with a Vectastain ABC Elite Kit (Vector Labs, Burlingame, Calif.) using the standard protocol supplied with the kit. Nickel-intensified diaminobenzidine (DAB) was used as the chromagen to yield a gray-black precipitation product. Following visualization of the Fos immunoreactivity, the sections were mounted on gelatin-coated glass slides and allowed to dry. The sections were then dehydrated and cover slipped. Fos expressing cells were quantitated using the MCID M2 imaging system (Imaging Research, St. Catherines, Ontario).

## CNCC[C@@H](Oc1ccccc1C)c1ccccc1 [Atomoxetine, (R)-(−)-N-methyl-3-(2-methylphenoxy)-3-phenylpropylamine]
Nucleus accumbens
  Fos positive cells, Nucleus Accumbens: 152 ± 44 Fos positive cells/mm^2
Prefrontal cortex
  Fos positive cells, Prefrontal Cortex: 296 ± 26 Fos positive cells/mm^2
striatum
  Fos positive cells, Striatum: 102 ± 35 Fos positive cells/mm^2
Summary of the table
  expression of c-fos (regional pattern, in words): increased the expression of c-fos only in the cortical areas
